Assay results taken from patent US20190352276A1, “INHIBITORS OF BRUTON'S TYROSINE KINASE” (Joint Stock Company "Biocad", priority 2016, published 2019).
Where two headings read alike, the source gives them in different places.

Experiments:
[1] = tested on: Z-138 (mantle cell lymphoma); experiment: Antiproliferative activity, Z-138 cells (Alamar Blue); assay type: cell-based; settings: Homo sapiens
How it was run: (§1)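 RPMI-1640/10% FBS/gentamicin, ~3*10^4 cells/well; cpd in DMSO (final <1%), 72 h, 37 °C, 5% CO2. Alamar Blue 14-16 h; fluor. Ex540/Em590. IC50 from 4-parameter logistic (Levenberg-Marquardt).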

[2] = tested on: Mino (mantle cell lymphoma); experiment: Antiproliferative activity, Mino cells (Alamar Blue); assay type: cell-based; settings: Homo sapiens
How it was run: as §1

[3] = tested on: HepG2 cells (hepatocellular carcinoma); experiment: General cytotoxicity on HepG2 cells (CC50; therapeutic index CC50 HepG2/IC50 Mino); assay type: cell-based; settings: therapeutic index
How it was run: (§2)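 Cells seeded at 2*10^4 per well in DMEM, compounds added after 24 h at 200 μM to 4 μM final and incubated 72 h. Viability read with Alamar Blue to derive CC50; therapeutic index is CC50 (HepG2) divided by IC50 (Mino).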

[4] = as above; assay type: cell-based; settings: human, HepG2 cells (hepatocellular carcinoma), 72 hours, Alamar Blue
How it was run: as §2

[5] = target: T1, recombinant Btk kinase enzyme (Homo sapiens, UniProt Q06187); experiment: In vitro inhibition of Btk kinase activity (ADP-Glo); assay type: biochemical
T1 construct: purchased SignalChem B10-10H
Experimental: To assess Btk kinase activity described herein, SignalChem kinase system was used. Btk kinase activity was determined in the reaction between recombinant Btk kinase enzyme (SignalChem #B10-10H) and Poly (4:1 Glu, Tyr) peptide substrate in the presence of the inhibitor.
Staurosporine (Abcam Biochemicals, ab146588) was used as a reference inhibitor and 0.1% DMSO in the reaction buffer—as a negative control. The solution of 0.5 mg/mL peptide substrate and 50 &M ATP in the same buffer were added; the solution was incubated for 180 minutes at 37° C. To detect the amount of ATP taken up during the kinase reaction, the equivalent amount of ADP (from the ADP Glo Detection Kit (Promega, #V9101)) was used according to the protocol. The reaction mixture was equilibrated to room temperature. 25 µL of ADP-Glo Reagent were added into each well; the plate was incubated for 40 minutes. 50 μL of Kinase Detection Reagent were added; the plate was incubated for 30 minutes. The luminescence was measured with multimode plate reader (Tecan Infinite M200Pro, Switzerland). IC50 values were calculated using Magellan 7.2 software (Tecan, Switzerland) approximating experimental points by four-parameter logistic model with the optimization by Levenberg-Marquardt.

[6] = Permeability through the monolayer of Caco-2 cells; assay type: in vitro ADME; settings: human; for Papp A→B at 2 h, 10 μM / Papp B→A at 2 h, 10 μM: 2 h at 37° C.; for efflux ratio at 2 h, 10 μM: read-out: efflux (Papp B-A/Papp A-B)
Excerpt: Assessment of permeability through the monolayer of Caco-2 cells allows to evaluate the ability of the candidate compounds to penetrate through biological membranes by active and passive transport.
Caco-2, the cells of the intestinal epithelium, had been cultured in transwell plate inserts with the filters (with pores of 0.4 μm, BD Falcon with High Density, #353495) for 21 days, and then the integrity of the monolayer were estimated with Lucifer Yellow dye (Sigma-Aldrich, USA) by standard protocol. When setting the A→B transfer, solutions of test substances were added in a buffer with pH 6.5 (Hanks solution, 10 mM HEPES, 15 mM glucose solution) with the concentration of 10 μM into the upper chamber; the lower chamber was filled with a buffer with pH 7.4 (Hanks solution, 10 mM HEPES, 15 mM glucose solution, 1% BSA). When setting B→A transfer, the upper chamber was filled with the buffer with pH 6.5, and solutions of the test substances were added in the buffer with pH 7.4 at the concentration of 10 μM in the lower chamber. Propranolol was used as a control substance (as it has high permeability).
We used gradient elution (1 mL/min flow rate). We determined the areas of peaks corresponding to the compounds. On the basis of peak areas in the calibration standards we determined the concentration of compound in the initial solution and in the samples from the wells of the upper and lower chambers.
Papp, permeability through the cell layer, was calculated using the following formula:
Papp=(C(t)*V)/(C(0)*t*Area), where
Papp is the effective constant of permeability, m/s V is the volume of solution (0.8 ml in A→B test, 0.2 ml in B→A test), ml Area is the surface area of the membrane (0.33 cm^2), cm^2 t is the time of incubation (7200 sec), sec C(0) is the concentration of the initial solution, μM C(t) is the concentration of the solution after 2 hours (the concentration in the sample from the well of the lower chamber in A→B test; the concentration in the sample from the well of the top chamber in B→A test), μM
The value was calculated with the following formula:
efflux=Papp B-A/Papp A-B, where
Papp A-B is the value of the permeability in the direct test (A→B); Papp B-A is the value of the permeability in the backward test in (B→A).

[7] = tested on: DOHH2 (follicular lymphoma); experiment: Antiproliferative activity, DOHH2 cells (Alamar Blue); assay type: cell-based; settings: Homo sapiens, DOHH-2, Table 10, 72 h, average of several tests
Experimental: Antiproliferative activity of BTK inhibitors was measured in cell-based bioassay on B-cells cultures: Mino (mantle cell lymphoma, ATCC® CRL-3000™), Z-138 (mantle cell lymphoma, ATCC® CRL-3001™) and DOHH2 (follicular lymphoma, Creative Bioarray CSC-C0219) using cell viability reagent Alamar Blue (Invitrogen, #DAL 1100). Cells were cultured in 10% FB S-supplemented (HyClone, #SH3008803/Gibco, #16140-071) RPMI-1640 (PanEco, #S330p) for at least 1 passage after thawing, washed with PBS and passaged in 96-well culture plates (Corning, #3599) with growth medium with 10% FBS (HyClone, #SH3008803/Gibco, #16140-071) and antibiotic (50 μg/ml of gentamicin (Biolot, #1.3.16))≈3*10^4 cells in 50 μl of medium per well.
The compounds were dissolved in DMSO and diluted with the assay medium to final concentrations ranging from […]. 150 μl of each diluted compound were then added to each well (final concentration of DMSO was less than 1%) and incubated at 37° C. in an incubator under 5% of CO2 for 72 h. After incubation, 20 μl of Alamar Blue reagent (Invitrogen, #DAL1100) were added to each well. The plates were shaked on an orbital shaker (Biosan, Latvia) and then incubated for 14-16 hours at 37° C. in the incubator.
The number of living cells were estimated, measuring the fluorescence signal at the excitation wavelength (REx) of 540 nm and the emission wavelength (λEm) of 590 nm on a microplate reader (Tecan Infinite M200Pro, Switzerland).
For each compound, IC50 was calculated using Magellan 7.2 software (Tecan, Switzerland) approximating experimental points by four-parameter logistic model with the optimization by Levenberg-Marquardt.

[8] = Chemical stability in artificial gastric fluid (SGF without enzymes); settings: 10 μM in SGF without enzymes, pH=1.4, 37° C.
[9] = Stability in human blood plasma; settings: 10 μM in pooled human blood plasma, incubated 4 hours at 37° C.
Experimental: To assess the blood plasma stability of the drug candidates, we used pooled human blood plasma taken from ten healthy donors. The initial solution (10 Mm in DMSO) was diluted with pooled blood plasma to 10 μM (test solution). The test solution had been incubated for 4 hours in a dry block heater at 37° C. We determined peak areas of the compounds corresponding to the start of the test (before incubating) and the end of the test (after incubating in a dry block heater at 37° C.) by HPLC using Agilent1200 chromatograph (Agilent, USA) with preliminary protein precipitation with acetonitrile. We used gradient elution (1 mL/min flow rate). We determined amount of substance in the sample in % after incubation.
We evaluated the stability of the compounds.

[10] = Table 10, 72 h, average of several tests
[11] = Table 10, average of several tests
[12] = Table 8, ADP-Glo, read-out: IC50 kinase BTK

T1 sequence (Q06187 whole entry): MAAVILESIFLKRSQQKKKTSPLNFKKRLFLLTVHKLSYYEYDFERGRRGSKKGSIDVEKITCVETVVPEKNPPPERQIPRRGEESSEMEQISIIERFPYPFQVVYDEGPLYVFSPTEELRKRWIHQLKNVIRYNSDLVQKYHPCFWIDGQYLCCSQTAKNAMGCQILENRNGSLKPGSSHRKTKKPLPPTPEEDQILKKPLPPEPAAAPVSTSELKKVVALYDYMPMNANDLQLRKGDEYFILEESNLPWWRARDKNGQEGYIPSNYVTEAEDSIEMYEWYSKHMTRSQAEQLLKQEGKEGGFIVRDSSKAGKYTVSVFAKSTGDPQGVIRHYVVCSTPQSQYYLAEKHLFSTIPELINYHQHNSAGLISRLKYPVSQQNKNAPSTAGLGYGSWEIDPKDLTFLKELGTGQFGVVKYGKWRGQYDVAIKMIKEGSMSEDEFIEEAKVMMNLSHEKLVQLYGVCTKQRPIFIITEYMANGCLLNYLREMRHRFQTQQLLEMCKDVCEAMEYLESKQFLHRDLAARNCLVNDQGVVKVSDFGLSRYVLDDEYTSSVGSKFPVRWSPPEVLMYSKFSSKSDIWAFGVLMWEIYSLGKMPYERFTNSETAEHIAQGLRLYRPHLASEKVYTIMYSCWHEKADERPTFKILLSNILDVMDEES

| Structure (SMILES) | IC50 [1, 10] [µM] | IC50 [2, 10] [µM] | CC50 (HepG2)/IC50 (Mino) ([3]; Table 10) | CC50 at 72 h [4, 11] [µM] | IC50 [5, 12] [µM] | IC50 [7] [µM] | Amount of substance in the sample in % (chemical stability) [8] [%] | other results |
| --- | --- | --- | --- | --- | --- | --- | --- | --- |
| C=CC(=O)N1CCC[C@@H](n2nc(-c3ccc(Oc4ccncc4)cc3)c3cncc(C#N)c32)C1 [BCD-BTK-123, (R)-1-(1-acryloylpiperidin-3-yl)-3-(4(pyridin-4-yloxy)phenyl)-1H-pyrazolo[4,3-c]pyridin-7-carbonitrile] | – | – | – | – | – | – | – | IC50 ([1]; Table 11, 72 h): 28 µM; IC50 ([2]; Table 11, 72 h): 13.2 µM; CC50 (HepG2)/IC50 (Mino) ([3]; Table 11): 3.81; CC50 at 72 h ([4]; Table 11): 50.4 µM; IC50 ([5]; Table 11, BTK kinase, read-out: IC50 kinase): 1.51 µM; Papp A→B at 2 h, 10 μM [6]: 14.8 ×10⁻⁶ cm/s; Papp B→A at 2 h, 10 μM [6]: 7.4 ×10⁻⁶ cm/s; efflux ratio at 2 h, 10 μM [6]: 0.5 |
| C=CC(=O)N1CCC[C@@H](n2nc(-c3ccc(C(=O)Nc4cc(C(F)(F)CC)ccn4)cc3)c3cncc(Cl)c32)C1 [BCD-BTK-215, (R)-4-(1-(1-acryloylpiperidin-3-yl)-7-chloro-1H-pyrazolo[4,3-c]pyridin-3-yl)-N-(4-(1,1-difluoropropyl)pyridin-2-yl)benzamide] | 8 | 2.93 | >34.11 | > 100 | 0.0358 | > 100 | – | – |
| C=CC(=O)N1CCC[C@@H](n2nc(-c3ccc(C(=O)Nc4ccccn4)cc3)c3cncc(C#N)c32)C1 [BCD-BTK-228, (R)-4-(1-(1-acryloylpiperidin-3-yl)-7-cyano-1H-pyrazolo[4,3-c]pyridin-3-yl)-N-(pyridin-2-yl)benzamide] | – | – | – | – | 0.0389 | – | 99.9 | Amount of substance in the sample, % (stability in human blood plasma) [9]: 85.2%; Papp A→B at 2 h, 10 μM [6]: 8 ×10⁻⁶ cm/s; Papp B→A at 2 h, 10 μM [6]: 1.4 ×10⁻⁶ cm/s; efflux ratio at 2 h, 10 μM [6]: 0.17 |
| C=CC(=O)N1CCC[C@@H](n2nc(-c3ccc(C(=O)Nc4ncccc4F)cc3)c3c(N)ncc(Cl)c32)C1 [BCD-BTK-233, (R)-4-(1-(1-acryloylpiperidin-3-yl)-4-amino-7-chloro-1H-pyrazolo[4,3-c]pyridin-3-yl)-N-(3-fluoropyridin-2-yl)benzamide] | 4.11 | 5.44 | 3.39 | 18.4 | 0.0115 | 1.11 | 100 | – |
| C=CC(=O)N1CCC[C@@H](n2nc(-c3ccc(C(=O)Nc4ccc(F)cn4)cc3)c3cncc(F)c32)C1 [BCD-BTK-244, (R)-4-(1-(1-acryloylpiperidin-3-yl)-7-fluoro-1H-pyrazolo[4,3-c]pyridin-3-yl)-N-(5-fluoropyridin-2-yl)benzamide] | – | – | – | – | 0.0557 | – | 100 | – |
| C=CC(=O)N1CCC[C@@H](n2nc(-c3ccc(C(=O)Nc4cc(C(F)(F)CCC)ccn4)cc3)c3cncc(F)c32)C1 [BCD-BTK-247, (R)-4-(1-(1-acryloylpiperidin-3-yl)-7-fluoro-1H-pyrazolo[4,3-c]pyridin-3-yl)-N-(4-(1,1-difluorobutyl)pyridin-2-yl)benzamide] | > 50 | 5.81 | >17.21 | > 100 | 0.0147 | > 100 | – | – |
| C=CC(=O)N1CCC[C@@H](n2nc(-c3ccc(C(=O)Nc4cccc(F)n4)cc3)c3c(N)ncc(Cl)c32)C1 [BCD-BTK-250, (R)-4-(1-(1-acryloylpiperidin-3-yl)-4-amino-7-chloro-1H-pyrazolo[4,3-c]pyridin-3-yl)-N-(6-fluoropyridin-2-yl)benzamide] | 3.26 | 2.38 | 5.13 | 12.2 | 0.0153 | – | – | – |
| C=CC(=O)N1CCC[C@@H](n2nc(-c3ccc(C(=O)Nc4cc(C(F)(F)CCC)ccn4)cc3)c3c(N)ncc(Cl)c32)C1 [BCD-BTK-254, (R)-4-(1-(1-acryloylpiperidin-3-yl)-4-amino-7-chloro-1H-pyrazolo[4,3-c]pyridin-3-yl)-N-(4-(1,1-difluorobutyl)pyridin-2-yl)benzamide] | 6.65 | 2.95 | 4.18 | 12.3 | 0.0112 | – | – | – |
| C=CC(=O)N1CC[C@H](n2nc(-c3ccc(C(=O)Nc4ccccn4)cc3)c3cncc(Cl)c32)C1 [BCD-BTK-273, (S)-4-(1-(1-acryloylpyrrolidin-3-yl)-7-chloro-1H-pyrazolo[4,3-c]pyridin-3-yl)-N-(pyridin-2-yl)benzamide] | – | – | – | – | 0.0261 | – | 100 | – |
| C=CC(=O)N1CCC[C@H](Cn2nc(-c3ccc(C(=O)Nc4ccccn4)cc3)c3cncc(Cl)c32)C1 [BCD-BTK-290, (S)-4-(1-((1-acryloylpiperidin-3-yl)methyl)-7-chloro-1H-pyrazolo[4,3-c]pyridin-3-yl)-N-(pyridin-2-yl)benzamide] | – | – | – | – | 0.0196 | – | 100 | Amount of substance in the sample, % (stability in human blood plasma) [9]: 100.0% |
| CC#CC(=O)N1CCC[C@@H](n2nc(-c3ccc(C(=O)Nc4ccccn4)cc3)c3c(N)ncc(Cl)c32)C1 [BCD-BTK-295, (R)-4-(4-amino-1-(1-(but-2-ynoyl)piperidin-3-yl)-7-chloro-1H-pyrazolo[4,3-c]pyridin-3-yl)-N-(pyridin-2-yl)benzamide] | 1.19 | 2 | 16.23 | 32.5 | 0.0652 | 1.94 | – | – |
